The results in this text go back to patent publication US12678471B2 (priority 2022, dated 2026).

For this series, the system named is ACE2-293T cells. As to conditions: for Cell viability (%): 10 μM, 24 hours, ACE2-293T cells, vehicle group = 100%, mean ± SD (n = 3); for Cytotoxicity to ACE2-293T cells (result in words): dose of 10 μM.

Consider `COc1cc2c3cc1Oc1c(OC)c(OC)cc4c1[C@@H](Cc1ccc(O)c(c1)Oc1ccc(cc1)C[C@@H]3N(C)CC2)N(C)CC4` [Berbamine], for which the “Cell viability (%)” value came out at 98.15 ± 3.04% and the “Cytotoxicity to ACE2-293T cells (result in words)” value (from here on “Cytotoxicity to ACE2-293T cells”) is “caused no harms to the ACE2-293T cells”.

For the molecule `COc1cc2c3cc1Oc1c(O)c(OC)cc4c1[C@@H](Cc1ccc(O)c(c1)Oc1ccc(cc1)C[C@@H]3N(C)CC2)N(C)CC4` [Obamegine], the “Cell viability (%)” value is recorded as 98.19 ± 1.11% and the “Cytotoxicity to ACE2-293T cells” value is “caused no harms to the ACE2-293T cells”.

For the molecule Bersavine, the “Cell viability (%)” value was found to be 95.42 ± 2.33% and the “Cytotoxicity to ACE2-293T cells” value was “caused no harms to the ACE2-293T cells”.
